Data: ChEMBL document CHEMBL4834452, “Discovery of a novel series of substituted quinolines acting as anticancer agents and selective EGFR blocker: Molecular docking study” (Bioorg Med Chem Lett, 2021)

Legend:
MCF7 = experiment: Anticancer activity against human MCF7 cells assessed as cell growth inhibition measured by MTT assay; assay type: functional, cell-based
HepG2 = experiment: Anticancer activity against human HepG2 cells assessed as cell growth inhibition measured by MTT assay; assay type: functional, cell-based
HCT-116 = experiment: Anticancer activity against human HCT-116 cells assessed as cell growth inhibition measured by MTT assay; assay type: functional, cell-based
PC-3 = experiment: Anticancer activity against human PC-3 cells assessed as cell growth inhibition measured by MTT assay; assay type: functional, cell-based
[1] = molecular target: Epidermal growth factor receptor (Homo sapiens, UniProt P00533); experiment: Inhibition of recombinant wild type EGFR-TK (unknown origin) by ELISA
Chain of Epidermal growth factor receptor (P00533 whole entry): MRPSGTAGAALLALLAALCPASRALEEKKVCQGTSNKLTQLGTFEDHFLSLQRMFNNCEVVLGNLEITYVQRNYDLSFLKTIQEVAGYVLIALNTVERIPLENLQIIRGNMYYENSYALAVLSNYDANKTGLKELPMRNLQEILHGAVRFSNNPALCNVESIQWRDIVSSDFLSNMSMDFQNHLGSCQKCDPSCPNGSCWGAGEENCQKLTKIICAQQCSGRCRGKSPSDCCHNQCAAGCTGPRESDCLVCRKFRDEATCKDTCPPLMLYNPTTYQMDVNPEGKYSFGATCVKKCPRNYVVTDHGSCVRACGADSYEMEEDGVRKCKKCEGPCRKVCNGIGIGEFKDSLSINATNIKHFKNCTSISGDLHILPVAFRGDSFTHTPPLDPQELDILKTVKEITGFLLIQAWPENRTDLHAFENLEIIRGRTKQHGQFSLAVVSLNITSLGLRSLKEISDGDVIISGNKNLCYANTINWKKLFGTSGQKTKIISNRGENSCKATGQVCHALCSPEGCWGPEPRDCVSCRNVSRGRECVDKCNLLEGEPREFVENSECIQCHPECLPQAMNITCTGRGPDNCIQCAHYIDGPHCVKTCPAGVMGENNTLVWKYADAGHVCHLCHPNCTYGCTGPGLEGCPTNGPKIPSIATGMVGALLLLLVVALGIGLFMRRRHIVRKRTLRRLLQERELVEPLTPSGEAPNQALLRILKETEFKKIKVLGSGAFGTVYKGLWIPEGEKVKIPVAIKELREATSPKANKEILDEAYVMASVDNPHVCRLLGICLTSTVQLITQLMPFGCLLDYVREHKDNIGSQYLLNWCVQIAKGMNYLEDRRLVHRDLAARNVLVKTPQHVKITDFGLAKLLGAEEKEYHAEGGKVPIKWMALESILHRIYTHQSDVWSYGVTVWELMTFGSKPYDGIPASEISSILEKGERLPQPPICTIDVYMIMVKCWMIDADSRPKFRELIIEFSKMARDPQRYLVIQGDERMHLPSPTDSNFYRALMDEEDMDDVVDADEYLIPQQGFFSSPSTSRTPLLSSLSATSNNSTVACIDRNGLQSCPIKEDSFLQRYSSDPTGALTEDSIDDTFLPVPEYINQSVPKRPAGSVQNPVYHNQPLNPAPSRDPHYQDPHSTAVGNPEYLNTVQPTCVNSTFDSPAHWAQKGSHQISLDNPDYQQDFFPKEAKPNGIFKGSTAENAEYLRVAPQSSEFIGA

SMILES	IC50 (MCF7)	IC50 (HepG2)	IC50 (HCT-116)	IC50 (PC-3)	IC50 [1]
COc1ccc(C(Nc2ccc(Cl)cc2)n2c(=O)ccc3cc(O)ccc32)cc1 (centres undefined)	11.3 µM	21.5 µM	20.4 µM	35.2 µM	1.13 µM
COc1ccc(C(Nc2ccc(Br)cc2)n2c(=O)ccc3cc(O)ccc32)cc1 (centres undefined)	10.8 µM	18.3 µM	19.6 µM	32.9 µM	0.96 µM
COc1ccc(NC(c2ccc(OC)cc2)n2c(=O)ccc3cc(O)ccc32)cc1 (centres undefined)	49.2 µM	61.4 µM	73.3 µM	85.3 µM	5.29 µM
COc1ccc(C(Nc2ccc([N+](=O)[O-])cc2)n2c(=O)ccc3cc(O)ccc32)cc1 (centres undefined)	21.1 µM	29.7 µM	36.6 µM	48 µM	1.35 µM
COc1ccc(C(Nc2ccccc2)n2c(=O)ccc3cc(O)ccc32)cc1 (centres undefined)	35.1 µM	46.3 µM	53.7 µM	79.7 µM	14.3 µM
C#Cc1cccc(Nc2ncnc3cc(OCCOC)c(OCCOC)cc23)c1 [ERLOTINIB]	11.6 µM	17.7 µM	20.5 µM	26.9 µM	–
